Experimental data published in patent publication US4225595A, “Piperazine phosphates and phosphonate insecticides” (priority 1979, dated 1980).

Assays:
[1] = tested on: Southern House Mosquito Larvae (Culex pipiens quinquefasciatus); test: Southern House Mosquito larvae (M) assay, mortality 48 hours after treatment; format: in vivo; conditions: third-instar larvae in aqueous solution, initial 1 ppm, read-out: LD50 M
Description: (§1) Screening was initiated at a maximal concentration level believed to be injurious to the insect population. The initial level should not be understood as representing a maximum at which a viable test for insecticidal activity can be conducted.
Tobacco budworms were tested in the same manner as the cabbage looper. Romaine lettuce (Latuca sativa) leaves provided the substrate. Southern House Mosquito Larvae (Culex pipiens quinquefasciatus), (M)
Ten third-instar larvae were placed in a six ounce wax paper cup containing 100 ml of an aqueous solution of the test compounds at a concentration of 1 ppm. The treated larvae were stored at 70° F. (21.5° C.) and mortality was recorded 48 hours after treatment. Two-Spotted Mite [Tetranychus urticae (Koch)], (2SM)
(§2) A less than 50% mortality rate at the initial concentration is indicated by a "greater than" sign (>). An approximately 50% mortality rate is indicated by the initial concentration rate. Other results are the dilutions at which an LD50 was achieved.

[2] = tested on: Cabbage Looper [Trichoplusia ni (Hubner)]; test: Cabbage Looper (CL) leaf dip assay; format: in vivo; conditions: squash cotyledons, initial 0.1%
Description: as §1
(§3) Test compounds were diluted in a 50--50 acetone-water solution. Approximately 1×1.5 inch sections of curly dock (Rumex crispus) leaves were immersed in the test solution for 2-3 seconds. After drying on a wire screen, the leaves were placed in petri dishes containing a moistened piece of filter paper. Each dish was infested with 5 secondinstar saltmarsh larvae.
(§4) Mortality of the larvae was recorded 48 hours later. A piece of synthetic media was added to the dishes containing surviving larvae. The larvae were then observed for 5 additional days for delayed effects of the test compounds. Test concentrations ranged from 0.05% down to that at which approximately 50% mortality occurs. Cabbage Looper [Trichoplusia ni (Hubner)], (CL)
The effectiveness of the compounds was tested in the same manner as for the saltmarsh caterpillar with two exceptions. Cotyledons of hyzini squash (Calabacita abobrinha, were substituted for curly dock leaves and the initial test concentration was 0.1%. Tobacco Budworm [Heliothis virescens (Fabricius)], (TBW)
as §2

[3] = tested on: Tobacco Budworm [Heliothis virescens (Fabricius)]; conditions: leaf dip, Romaine lettuce leaves
Description: Mortality of the larvae was recorded 48 hours later. A piece of synthetic media was added to the dishes containing surviving larvae. […] Test concentrations ranged from 0.05% down to that at which approximately 50% mortality occurs.

[4] = tested on: Black Bean Aphid [Aphis fabae (Scop.)]; test: Black Bean Aphid (BBA) plant spray assay, mortality after three days; format: in vivo; conditions: spray on infested nasturtium plants
Source text: (§5) Screening was initiated at a maximal concentration level believed to be injurious to the insect population. The initial level should not be understood as representing a maximum at which a viable test for insecticidal activity can be conducted. […]
(§6) Nasturtium plants, Tropaeolum sp., approximately five centimeters (cm) high were transplanted into sandy loam soil in three-inch clay pots. Each pot was infested with 25-50 black bean aphids of mixed ages. Twenty-four hours later the pots were sprayed to the point of run-off with 50--50 acetone-water solutions of the test compounds.
(§7) Mortality rates were recorded after the infested plants had been held in the greenhouse for three days. Test concentrations ranged from 0.05% down to that at which 50% mortality occurs. Green Peach Aphid [Myzus persicae (Sulzer)], (GPA)
as §2

[5] = tested on: Green Peach Aphid [Myzus persicae (Sulzer)]; test: Green Peach Aphid (GPA) plant spray assay; format: in vivo; conditions: spray on infested radish plants, three days
Source text: as §1, §6, §7
(§8) The insecticidal properties were tested in the same manner as for black beam aphids with the substitution of the nasturtiums by radish plants, Rhaphanus sativus. German Cockroach [Blatella germanica (Linne)], (GR)--Direct Spray
as §2

[6] = tested on: Two-Spotted Mite [Tetranychus urticae (Koch)]; test: Two-Spotted Mite (2SM) plant dip assay, mortality seven days later; format: in vivo
Source text: as §5
Pinto bean plants (Phaseolus vulgaris) approximately 10 cm high were transplanted into sandy loam soil in three-inch clay pots. The plants were thoroughly infested with two-spotted mites of mixed ages and sexes. Twenty-four hours after infestation the plants were inverted and dipped for 2-3 seconds in 50--50 acetone-water solutions of the test compounds.
Mortality ratings for both adult mites and nymphs hatching after treatment were taken seven days later. Test concentrations ranged from 0.05% down to that at which 50% mortality occurs.
as §2

[7] = tested on: Housefly [Musca domestica (Linn.)]; conditions: topical, 48 h
Description: Housefly [Musca domestica (Linn.)], (HF)--Contact Residue Assay
Test compounds were diluted in acetone and aliquots were pipetted onto the bottom of 55×15 millimeter (mm) aluminum dishes. One ml of acetone containing 0.02% peanut oil was added to each dish to insure even spreading. After all solvents had evaporated the dishes were placed in cages each containing 25 one to two day old female houseflies. Each cage contained a sugar-water cotton plug for sustanence of the flies.
Mortality rates were recorded after 48 hours. Test levels ranged from 10 μ/25 .female. houseflies down to that at which approximately 50% mortality occurs.

[8] = tested on: German Cockroach [Blatella germanica (Linne)]; test: German Cockroach (GR) direct spray, mortality 7 days later; format: in vivo; conditions: one-month-old nymphs, initial 0.1%
Description: as §1
(§9) Mobile insects, such as houseflies, German cockroaches, Lygus bugs, were contained for treatment in circular cardboard cages covered with cellophane on the bottom and tulle netting on the top.
as §8
(§10) Test compounds were diluted in a 50--50 acetonewater solution. Two cubic centimeters (cc) of the compound solutions were sprayed through a DeVilbiss type EGA hand spray gun into cages each containing 10 one-month-old German cockroach nymphs.
The percent mortality was recorded 7 days later. Test concentrations ranged from 0.1% down to that at which approximately 50% mortality occurs.
as §2

[9] = tested on: Lygus Bug [Lygus hesperus (Knight)]; test: Lygus Bug (LB) direct spray assay, mortality 48 hours later; format: in vivo; conditions: adults, initial 0.05%
Description: as §1, §9, §10
Lygus Bug [Lygus hesperus (Knight)], (LB)--Direct Spray Assay
(§11) The species was treated in the same manner as the German cockroach. The cages contained one string beam pod and 10 adult Lygus bugs. The percent mortality was recorded 48 hours later. Test concentrations ranged from 0.05% down to that at which approximately 50% mortality occurs. Saltmarsh Caterpillar [Estigmene acrea (Drury)], (SMC)--Leaf Dip Assay
as §2

[10] = tested on: Saltmarsh Caterpillar [Estigmene acrea (Drury)]; test: Saltmarsh Caterpillar (SMC) leaf dip assay; format: in vivo; conditions: curly dock leaves, second-instar larvae, 48 hours + 5 days
Description: as §1, §11, §3, §4, §2

## CCOP(=O)(OCC)SCC(=O)N1CCN(C(=O)SC)CC1 [Compound 28, 1-N-methylthiocarbo-4-N-O,O-diethylphosphoromonothioylacetyl piperazine]
[1]
  LC50: > 1 µg/mL
[2]
  LD50 CL: > .1%
[3]
  LD50 TBW: > .1%
[4]
  LD50 BBA: .0002%
[5]
  LD50 GPA: .008%
[6]; adult mites
  LD50 2SM Adults: < .05%
[6]; eggs (nymphs hatching after treatment)
  LD50 2SM Eggs: < .05%
[7]
  LD50 HF: > 10 μg/25
[8]
  LD50 GR: > .1%
[9]
  LD50 LB: > .05%
[10]
  LD50 SMC: > .05%
